Results published in patent US5767253A, “A83543 Compounds; factors Q, R, S, and T” (priority 1995, dated 1998).
In brackets after ≈: the same amount, converted by molar mass.

How the values were obtained:
Aster Leafhopper = assay: Mite/insect screen, Aster Leafhopper (ALH); type: in vivo; conditions: Macrosteles fascifrons, 24 hr, mean of single replicate tests
Method: (§1) The Formula 2 compounds were tested for miticidal and insecticidal activity in the following mite/insect screen. Each test compound was formulated by dissolving the compound in an acetone-alcohol (1:1) mixture containing 23 g of TOXIMUL R (sulfonate/nonionic emulsifier blend) and 13 g of TOXIMUL S (sulfonate/nonionic emulsifier blend) per liter. These mixtures were then diluted with water to give the indicated concentrations.
(§2) Two-spotted spider mites and cotton aphids were introduced on squash cotyledons and allowed to establish on both leaf surfaces. The leaves were then sprayed with 5 ml of test solutions using a DeVilbiss atomizing sprayer at 10 psi. Both surfaces of the leaves were covered until run off and then allowed to dry for one hour. After standard exposure periods percent mortality was evaluated. Additional insects were evaluated using similar formulations and evaluation procedures. The results are reported in Table V. The following abbreviations are used: […]

Beet Armyworm = assay: Mite/insect screen, Beet Armyworm (BAW); type: in vivo, Spodoptera exiqua; conditions: Spodoptera exigua, 144 h, 6 day, mean of single replicate tests
Method: as §1, §2

Cotton Aphid = assay: Mite/insect screen, Cotton Aphid (CA); type: in vivo, Aphis gossypii Glover; conditions: Aphis gossypii, 4-5 day, mean of single replicate tests
Method: as §1, §2

German Cockroach = assay: Mite/insect screen, German Cockroach (GECR); type: in vivo; conditions: Blattella germanica, mean of single replicate tests
Method: as §1, §2

Rootknqt Nemat.ode = assay: Mite/insect screen, Rootknot Nematode (NEM); type: in vivo, Meliiodyne spp.; conditions: 264 h, 11 day, mean of single replicate tests
Method: as §1, §2

Southern Corn Rootworm = assay: Mite/insect screen, Southern Corn Rootworm (SCRW); type: in vivo, Diabrotica undecimpunctata howardi; conditions: 264 h, 11 day, mean of single replicate tests
Method: as §1, §2

Tobacco Budworm = assay: Mite/insect screen, Tobacco Budworm (TBW); type: in vivo; conditions: Heliothis virescens, 144 h, 6 day, mean of single replicate tests
Method: as §1, §2

Two-spotted Spider Mite = assay: Mite/insect screen, Two-spotted Spider Mite (TSSM); type: in vivo; conditions: Tetranychus urticae, 4-5 day, mean of single replicate tests
Method: as §1, §2

neonate tobacco budworm = assay: LD50 against neonate tobacco budworm; type: in vivo; conditions: Heliothis virescens; neonate larvae; mean of two tests; mortality evaluated at 24 and 48 hours
Method: The Formula 2 compounds were evaluated in the following assay to determine the LD50 against neonate tobacco budworm (Heliothis virescens). A petri dish (100 mm ×20 mm) is inverted and the lid lined with a #1 qualitative filter paper. Ten neonate larvae are placed in each dish and a 1 ml test solution is pipetted onto the insects. The petri dish bottom is then placed on the lid to contain the larvae. At 1 hr. after treatment, a small piece of Heliothis diet (modified slurry, Southland Products, Lake Village, Ariz.) is added to each dish. The mortality is evaluated at 24 and 48 hours. The tests were run in triplicate.

Blowfly Larvae = assay: Activity against blowfly larvae (in vitro); type: in vivo
Text: (§3) Tables VII and VIII summarize in vitro studies using compounds of the present invention against members of the insect order Diptera.

Adult Stablefly = assay: Activity against adult stablefly (in vitro); type: in vivo; conditions: Stomoxys calcitrans
Text: as §3

Compound | inhibition at 50 ppm (Aster Leafhopper) | inhibition at 400 ppm (Aster Leafhopper) | inhibition at 50 ppm (Beet Armyworm) | inhibition at 400 ppm (Beet Armyworm) | inhibition at 50 ppm (Cotton Aphid) | inhibition at 400 ppm (Cotton Aphid) | inhibition at 50 ppm (German Cockroach; 168 h, 7 day) | inhibition at 400 ppm (German Cockroach; 168 h, 7 day) | inhibition at 50 ppm (German Cockroach; 504 h, 21 day) | inhibition at 400 ppm (German Cockroach; 504 h, 21 day) | inhibition at 400 ppm (Rootknqt Nemat.ode) | inhibition at 400 ppm (Southern Corn Rootworm) | inhibition at 21 ppm (Tobacco Budworm) | inhibition at 64 ppm (Tobacco Budworm) | inhibition at 50 ppm (Two-spotted Spider Mite) | inhibition at 400 ppm (Two-spotted Spider Mite) | LC50 (neonate tobacco budworm) | % mortality (Blowfly Larvae; 5 ppm, 24 hrs.) | % mortality (Blowfly Larvae; 5 ppm, 48 hrs.) | % mortality (Blowfly Larvae; 10 ppm, 24 hrs.) | also measured
CC[C@H]1CCC[C@H](O[C@H]2CC[C@H](NC)[C@@H](C)O2)[C@@H](C)C(=O)C2=C[C@@H]3[C@@H](C=C[C@@H]4C[C@@H](O[C@@H]5O[C@@H](C)[C@H](OC)[C@@H](OC)[C@H]5O)C[C@@H]34)[C@@H]2CC(=O)O1 [A83543R] | 0% | 0% | 0% | 0% | 0% | 0% | 0% | 0% | 20% | 0% | 0% | 0% | 63% | 88% | 85% | 90% | 14.5 µg/mL (≈ 20.6 µM) | 90% | 100% | 100% | % mortality (Blowfly Larvae; 10 ppm, 48 hrs.): 100%; mortality at 5 ppm (Adult Stablefly; 24 h): 70%; mortality at 10 ppm (Adult Stablefly; 24 h): 90%; mortality at 5 ppm (Adult Stablefly; 48 h): 100%; mortality at 10 ppm (Adult Stablefly; 48 h): 100%
CO[C@@H]1[C@@H](OC)[C@@H](O)[C@H](O[C@H]2C[C@H]3[C@@H]4C=C5C(=O)[C@H](C)[C@@H](O[C@H]6CC[C@H](N(C)C)[C@@H](C)O6)CCC[C@H](C)OC(=O)C[C@H]5[C@@H]4C=C[C@@H]3C2)O[C@H]1C [A83543S] | 60% | 100% | 100% | 100% | 0% | 0% | 0% | 0% | 0% | 20% | 0% | 0% | 26% | 53% | 0% | 0% | 53 µg/mL (≈ 75.3 µM) | 0% | 0% | 60% | % mortality (Blowfly Larvae; 10 ppm, 48 hrs.): 60%; mortality at 50 ppm (Adult Stablefly; 24 h): 100%; mortality at 100 ppm (Adult Stablefly; 24 h): 90%; mortality at 50 ppm (Adult Stablefly; 48 h): 100%; mortality at 100 ppm (Adult Stablefly; 48 h): 100%
CC[C@H]1CCC[C@H](O[C@H]2CC[C@H](N(C)C)[C@@H](C)O2)[C@@H](C)C(=O)C2=C[C@@H]3[C@@H](C=C(C)[C@@H]4C[C@@H](O[C@@H]5O[C@@H](C)[C@H](OC)[C@@H](OC)[C@H]5O)C[C@@H]34)[C@@H]2CC(=O)O1 [A83543Q] | 100% | 100% | 100% | 100% | 0% | 0% | 0% | 0% | 0% | 0% | 0% | 0% | 100% | 100% | 70% | 100% | 0.39 µg/mL (≈ 0.533 µM) | 90% | 90% | 100% | % mortality (Blowfly Larvae; 10 ppm, 48 hrs.): 100%; mortality at 5 ppm (Adult Stablefly; 24 h): 50%; mortality at 10 ppm (Adult Stablefly; 24 h): 90%; mortality at 5 ppm (Adult Stablefly; 48 h): 90%; mortality at 10 ppm (Adult Stablefly; 48 h): 100%
CC[C@H]1CCC[C@H](O[C@H]2CC[C@H](N(C)C)[C@@H](C)O2)[C@@H](C)C(=O)C2=C[C@@H]3[C@@H](C=C[C@@H]4C[C@@H](O[C@@H]5O[C@@H](C)[C@H](OC)[C@@H](O)[C@H]5O)C[C@@H]34)[C@@H]2CC(=O)O1 [A83543T] | 20% | 100% | 0% | 0% | 0% | 0% | 0% | 0% | 0% | 0% | 0% | 0% | 0% | 0% | 0% | 0% | > 64 µg/mL |  |  |  | % mortality (Blowfly Larvae; 50 ppm, 24 hrs.): 0%; % mortality (Blowfly Larvae; 50 ppm, 48 hrs.): 0%; % mortality (Blowfly Larvae; 100 ppm, 24 hrs.): 0%; % mortality (Blowfly Larvae; 100 ppm, 48 hrs.): 0%; mortality at 50 ppm (Adult Stablefly; 24 h): 60%; mortality at 100 ppm (Adult Stablefly; 24 h): 80%; mortality at 50 ppm (Adult Stablefly; 48 h): 70%; mortality at 100 ppm (Adult Stablefly; 48 h): 90%
